Laboratory results reported in patent US9119877B2, “Therapeutic combination comprising a Cdc7 inhibitor and an anti-neoplastic agent” (NERVIANO MEDICAL SCIENCES S.R.L., priority 2010, dated 2015).
Read-outs that look alike come from different tables or passages of the source.

Columns and labels:
[1] = system: L-363 human Multiple Myeloma cell line; test: cell proliferation (CellTiterGlo), single agents and combinations, L-363; assay type: cell-based
Procedure: (§1) Materials and methods. Exponentially growing human breast cancer (Mcf-7), human ovarian cancer (A-2780), human multiple myeloma (L-363), human colorectal cancer (HCT-116) and human melanoma (A-375) cell lines were seeded and incubated at 37° C. in a humidified 5% CO2 atmosphere. Drugs were added to the experimental culture, and incubations were carried out at 37° C. for 72 hours in the dark. Scalar doses of the compound of formula (I) and antineoplastic agents were added to the medium starting from 24 hours after seeding. Drug solutions were prepared immediately before use. At the end of treatment, cell proliferation was determined by an intracellular adenosine triphosphate monitoring system (CellTiterGlo-Promega) using an Envision (PerkinElmer) reader. Inhibitory activity was evaluated comparing treated versus control data using the Assay Explorer (MDL) program. The dose inhibiting 50% of cell growth was calculated using sigmoidal interpolation curve. Combination indices (C.I.) were calculated using a proprietary computer program for multiple drug effect analysis based on the equation of Chou-Talalay (Adv Enzyme Regul 1984;22:27-55) for mutually nonexclusive drugs, where a C.I. of <1 indicates a more than additive effect: C.I.: >3 strong antagonism; 1.3-3 antagonism; 1.2-0.8 additivity; 0.8-0.3 synergism; <0.3 strong synergism.

[2] = system: Mcf-7 human breast adenocarcinoma cell line; test: cell proliferation (CellTiterGlo), single agents and combinations, Mcf-7; assay type: cell-based
Procedure: (§2) Materials and methods. […] Drugs were added to the experimental culture, and incubations were carried out at 37° C. for 72 hours in the dark. […] Drug solutions were prepared immediately before use. At the end of treatment, cell proliferation was determined by an intracellular adenosine triphosphate monitoring system (CellTiterGlo-Promega) using an Envision (PerkinElmer) reader. Inhibitory activity was evaluated comparing treated versus control data using the Assay Explorer (MDL) program. The dose inhibiting 50% of cell growth was calculated using sigmoidal interpolation curve.

[3] = system: A375 human melanoma cell line; test: cell proliferation (CellTiterGlo), single agents and combinations, A375; assay type: cell-based; settings: A-375, 72 h
Procedure: as §2

[4] = system: MX-1 human breast carcinoma; test: tumor growth delay, MX-1 xenograft, combination with docetaxel; assay type: in vivo; settings: MX-1 in CD1 Nu/Nu female mice, time to reach 1 g
Procedure: (§3) CD1 Nu/Nu female mice were obtained from Charles River, Italy, The animals were maintained in cages using steam autoclaved (sterile) bedding, sterilized diet and water were offered ad libitum. MX-1 human breast carcinoma (from American Type Culture Collection) was maintained by subcutaneous (SC) transplantation in athymic mice. Viable MX-1 tumor fragments (weighting 20-30 mg) were obtained aseptically from stock tumors and transplanted subcutaneously by trocar implantation into the left flank of athymic nude mice. Animals were examined regularly for the appearance of tumors.
(§4) Docetaxel was administered by intravenous route at the dose of 5 mg/kg on days 1, 8, 15. […] Tumor growth and body weight were measured every 3 days, Tumor growth was assessed by caliper. The two diameters were recorded and the tumor weight was calculated according to the following formula: length (mm)×width^2/2. The effect of the antitumor treatment was evaluated as the delay in the onset of an exponential growth of the tumor (see for references Anticancer drugs 7:437-60, 1996). This delay (T-C value) was defined as the difference of time (in days) required for the treatment group (T) and the control group (C) tumors to reach a predetermined size (1 g). Toxicity was evaluated on the basis of body weight reduction.

[5] = toxicity on the basis of body weight reduction, MX-1 study with bevacizumab; assay type: in vivo
Procedure: (§5) Animals were examined regularly for the appearance of tumors. The treatment started when tumors were palpable. Compound of formula (I) was administered by oral route in a volume of 10 ml/kg at the daily dose of 20 mg/kg on days 2, 4, 6, 8, 10 and 12. Bevacizumab was administered by intravenous route at the dose of 20 mg/kg on days 1, 5, 9 and 13. When combined, compound of formula (I) was administered on days 2, 4, 6, 8, 10 and 12 and bevacizumab on days 1, 5, 9 and 13. […] Tumor growth was assessed by caliper.

[6] = toxicity on the basis of body weight reduction, HCT-116 study with irinotecan; assay type: in vivo
Procedure: (§6) Balb, Nu/Nu male mice, from Harlan (Italy), were maintained in agreement with the European Communities Council Directive no. 86/609/EEC, in cages with paper filter cover, food and bedding sterilized and acidified water. Fragments of HCT-116 human colon cancer tumors were implanted subcutaneously. The treatment started when tumors were palpable. […] Irinotecan was administered by intravenous route at the dose of 45 mg/kg on days 1, 5, 9. […] Tumor growth was assessed by caliper.

[7] = system: HCT-116 human colon cancer tumors; test: tumor growth delay, HCT-116 xenograft, combination with irinotecan; assay type: in vivo; settings: HCT-116 in Balb Nu/Nu male mice, time to reach 1 g
Procedure: as §6

[8] = system: MX-1 human breast carcinoma; test: tumor growth delay, MX-1 xenograft, combination with bevacizumab; assay type: in vivo; settings: MX-1 in CD-1 Nu/Nu female mice, time to reach 1 g
Procedure: as §5

[9] = system: A2780 human ovarian carcinoma cell line; test: cell proliferation (CellTiterGlo), single agents and combinations, A2780; assay type: cell-based; settings: single agent, 72 hours
Procedure: as §1

[10] = female, CD1 Nu/Nu, mouse, in vivo
Procedure: as §3, §4

[11] = system: HCT116 human colon carcinoma cell line; test: cell proliferation (CellTiterGlo), single agents and combinations, HCT116; assay type: cell-based
Procedure: as §2

[12] = 20 mg/kg oral on days 2, 4, 6, 8, 10, 12

Compound: CC1(C)CCC(c2ccc(Cl)cc2)=C(CN2CCN(c3ccc(C(=O)NS(=O)(=O)c4ccc(N[C@H](CCN5CCOCC5)CSc5ccccc5)c(S(=O)(=O)C(F)(F)F)c4)cc3)CC2)C1 [ABT-263, Navitoclax]
- IC50 ([1]; L-363, single agent, 72 hours, Table 10, read-out: IC50 (μM) ABT-263): 7.3 µM

Compound: NC(=O)c1cc(-c2ccnc(N)n2)[nH]c1-c1ccc(Cl)cc1Cl [Compound of formula (I), 5-(2-Amino-pyrimidin-4-yl)-2-(2,4-dichloro-phenyl)-1H-pyrrole-3-carboxylic acid amide]
- IC50 ([2]; Homo sapiens, MCF7, 72 h, read-out: IC50 (μM) Compound of formula (I), Mcf-7, single agent, Table 1 (gemcitabine experiment)): 1.1 µM
- IC50 ([2]; Homo sapiens, MCF7, 72 h, read-out: IC50 (μM) Compound of formula (I), Mcf-7, single agent, Table 2 (cisplatin experiment)): 1.7 µM
- IC50 ([2]; Homo sapiens, MCF7, 72 h, read-out: IC50 (μM) Compound of formula (I), Mcf-7, single agent, Table 4 (SN-38 experiment)): 0.77 µM
- IC50 ([2]; Homo sapiens, MCF7, 72 h, read-out: IC50 (μM) Compound of formula (I), Mcf-7, single agent, Table 5 (etoposide experiment)): 1.11 µM
- IC50 ([2]; Homo sapiens, MCF7, 72 h, read-out: IC50 (μM) Compound of formula (I), Mcf-7, single agent, Table 6 (paclitaxel experiment)): 0.67 µM
- IC50 ([2]; Homo sapiens, MCF7, 72 h, read-out: IC50 (μM) Compound of formula (I), Mcf-7, single agent, Table 7 (erlotinib experiment)): 1.87 µM
- IC50 ([2]; Homo sapiens, MCF7, 72 h, read-out: IC50 (μM) Compound of formula (I), Mcf-7, single agent, Table 8 (bortezomib experiment)): 0.767 µM
- IC50 ([3]; read-out: IC50 (μM) Compound of formula (I), A375, single agent, Table 11 (dacarbazine, sequential experiment)): 1.21 µM
- IC50 ([3]; read-out: IC50 (μM) Compound of formula (I), A375, single agent, Table 12 (dacarbazine, simultaneous experiment)): 0.86 µM
- T-C ([4]; 20 mg/kg oral on days 2, 4, 6, 9, 11, 13): 10 days
- Toxicity ([5]; female, CD-1 Nu/Nu, mouse, in vivo, po, 20 mg/kg): 0/7
- Toxicity ([6]; male, Balb Nu/Nu, mouse, in vivo, po, 20 mg/kg): 0/7
- T-C [7, 12]: 4 days
- T-C [8, 12]: 13 days
- IC50 ([9]; Homo sapiens, Table 3 (cisplatin experiment), read-out: IC50 (μM) Compound of formula (I)): 0.52 µM
- Toxicity ([10]; po, 20 mg/kg): 0/7
- IC50 ([1]; L-363, 72 h, read-out: IC50 (μM) Compound of formula (I)): 0.38 µM
- IC50 ([11]; HCT-116, 72 h, read-out: IC50 (μM) Compound of formula (I)): 0.8 µM

Compound: Nc1ccn([C@@H]2O[C@H](CO)[C@@H](O)C2(F)F)c(=O)n1 [Gemcitabine, gemcitabine]
- IC50 ([2]; Homo sapiens, MCF7, Mcf-7, single agent, 72 hours, Table 1, read-out: IC50 (μM) Gemcitabine): 0.79 µM

Compound: CCc1c2c(nc3ccc(O)cc13)-c1cc3c(c(=O)n1C2)COC(=O)[C@]3(O)CC [SN38, SN-38]
- IC50 ([2]; Mcf-7, single agent, 72 hours, Table 4, read-out: IC50 (μM) SN38): 0.024 µM

Compound: CC(C)C[C@H](NC(=O)[C@H](Cc1ccccc1)NC(=O)c1cnccn1)B(O)O [bortezomib]
- IC50 ([2]; Homo sapiens, MCF7, Mcf-7, single agent, 72 hours, Table 8, read-out: IC50 (μM) bortezomib): 0.011 µM
- IC50 ([11]; HCT-116, HCT116, single agent, 72 hours, Table 9, read-out: IC50 (μM) bortezomib): 0.009 µM

Compound: N.N.[Cl][Pt][Cl] [cisplatin]
- IC50 ([2]; Mcf-7, single agent, 72 hours, Table 2, read-out: IC50 (μM) cisplatin): 10.2 µM
- IC50 ([9]; Table 3, read-out: IC50 (μM) cisplatin): 3 µM

Compound: CN(C)/N=N/c1[nH]cnc1C(N)=O [dacarbazine]
- IC50 ([3]; A375, single agent, Table 11 (sequential experiment), read-out: IC50 (μM) dacarbazine): 37 µM
- IC50 ([3]; A375, single agent, Table 12 (simultaneous experiment), read-out: IC50 (μM) dacarbazine): 83 µM

Compound: CC(=O)O[C@@]12CO[C@@H]1C[C@H](O)[C@@]1(C)C(=O)[C@H](O)C3=C(C)[C@@H](OC(=O)[C@H](O)[C@@H](NC(=O)OC(C)(C)C)c4ccccc4)C[C@@](O)([C@@H](OC(=O)c4ccccc4)[C@H]21)C3(C)C [docetaxel]
- T-C ([4]; 5 mg/kg intravenous on days 1, 8, 15): 9 days
- Toxicity ([10]; iv, 5 mg/kg): 0/7

Compound: C#Cc1cccc(Nc2ncnc3cc(OCCOC)c(OCCOC)cc23)c1 [erlotinib]
- IC50 ([2]; Homo sapiens, MCF7, Mcf-7, single agent, 72 hours, Table 7, read-out: IC50 (μM) erlotinib): 74.8 µM

Compound: COc1cc([C@@H]2c3cc4c(cc3[C@@H](O[C@@H]3O[C@@H]5CO[C@@H](C)O[C@H]5[C@H](O)[C@H]3O)[C@H]3COC(=O)[C@H]23)OCO4)cc(OC)c1O [etoposide]
- IC50 ([2]; Homo sapiens, MCF7, Mcf-7, single agent, 72 hours, Table 5, read-out: IC50 (μM) etoposide): 12.7 µM

Compound: CCc1c2c(nc3ccc(OC(=O)N4CCC(N5CCCCC5)CC4)cc13)-c1cc3c(c(=O)n1C2)COC(=O)[C@]3(O)CC [irinotecan]
- Toxicity ([6]; HCT-116 study, 45 mg/kg intravenous on days 1, 5, 9, body weight reduction): 0/7
- T-C ([7]; 45 mg/kg intravenous on days 1, 5, 9): 18 days

Compound: CC(=O)O[C@H]1C(=O)[C@@]2(C)[C@H]([C@H](OC(=O)c3ccccc3)[C@]3(O)C[C@H](OC(=O)[C@H](O)[C@@H](NC(=O)c4ccccc4)c4ccccc4)C(C)=C1C3(C)C)[C@]1(OC(C)=O)CO[C@@H]1C[C@@H]2O [paclitaxel]
- IC50 ([2]; Homo sapiens, MCF7, Mcf-7, single agent, 72 hours, Table 6, read-out: IC50 (μM) paclitaxel): 0.008 µM

Compound: bevacizumab
- Toxicity ([5]; MX-1 study, 20 mg/kg intravenous on days 1, 5, 9, 13, body weight reduction): 0/7
- T-C ([8]; 20 mg/kg intravenous on days 1, 5, 9, 13): 13 days
